Laboratory results published in patent US20070202548A1, “SCREENING ASSAY TO IDENTIFY INHIBITORS OF THE MURD ENZYME USING AN ACTIVATOR-I[…] ENZYME” (priority 2002, published 2007).

Legend:
E. faecalis MurD [1] = target: T1, E. faecalis MurD (Enterococcus faecalis, UniProt O07108, A218V/A300V/N165D/T307K); assay: stability of E. faecalis Mur D in DMSO; assay type: biochemical; settings: DMSO concentration up to 5%, FIG. 4
[2] = tested on: Staphylococcus aureus Mur D enzyme; assay: salt activation of S. aureus MurD; assay type: biochemical; settings: FIG. 2
E. faecalis MurD [3] = target: T1, E. faecalis MurD; assay type: biochemical; settings: FIG. 1 / FIG. 3
E. coli enzyme (MurD) = E. coli enzyme (MurD) (Escherichia coli, UniProt P14900); settings: FIG. 3
Sequence of E. coli enzyme (MurD) (P14900 whole entry): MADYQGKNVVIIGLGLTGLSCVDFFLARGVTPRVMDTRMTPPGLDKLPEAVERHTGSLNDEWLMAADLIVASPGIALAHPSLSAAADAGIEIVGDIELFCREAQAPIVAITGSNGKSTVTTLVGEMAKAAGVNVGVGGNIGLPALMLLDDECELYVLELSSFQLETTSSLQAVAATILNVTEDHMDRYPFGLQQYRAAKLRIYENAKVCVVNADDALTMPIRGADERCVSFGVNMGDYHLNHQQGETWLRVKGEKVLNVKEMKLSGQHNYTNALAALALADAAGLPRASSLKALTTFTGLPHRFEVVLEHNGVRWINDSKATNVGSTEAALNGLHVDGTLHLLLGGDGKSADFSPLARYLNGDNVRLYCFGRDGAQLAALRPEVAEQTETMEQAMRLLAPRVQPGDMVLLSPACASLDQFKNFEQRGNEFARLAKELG

T1 sequence (O07108 whole entry N165D/A218V/A300V/T307K): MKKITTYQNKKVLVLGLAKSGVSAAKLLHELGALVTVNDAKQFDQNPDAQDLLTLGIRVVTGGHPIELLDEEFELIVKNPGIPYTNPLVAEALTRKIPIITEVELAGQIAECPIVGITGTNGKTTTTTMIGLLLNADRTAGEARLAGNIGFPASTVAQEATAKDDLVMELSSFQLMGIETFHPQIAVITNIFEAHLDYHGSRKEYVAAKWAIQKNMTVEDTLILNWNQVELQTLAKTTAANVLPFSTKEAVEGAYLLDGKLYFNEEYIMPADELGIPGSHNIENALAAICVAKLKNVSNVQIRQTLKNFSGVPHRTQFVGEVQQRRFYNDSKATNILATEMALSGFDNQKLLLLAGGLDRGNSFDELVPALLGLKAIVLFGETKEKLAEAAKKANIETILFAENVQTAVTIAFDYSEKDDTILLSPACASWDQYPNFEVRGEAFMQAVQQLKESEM

SMILES | activation of S. aureus Mur D enzyme by cations [2] | effect of salt on E. faecalis MurD enzyme activity (E. faecalis MurD [3]) | other results
C[S+](C)[O-] [DMSO, dimethylsulfoxide] |  |  | effect of DMSO on E. faecalis MurD (E. faecalis MurD [1]): not affected
[K+] [K^+, potassium] | activated |  | 
N [NH4^+, ammonium] | activated |  | 
O=S(=O)(O)O [SO4-ions] |  | inhibitor | 
N.O=CO [ammonium formate] |  | independent | dependence of E. coli enzyme activity on presence of salt (E. coli enzyme (MurD)): dependent
